How the values were obtained:
[1] = tested on: MTAP-positive cells and cells lines; assay: Applicants' tissue culture experiments on protection of MTAP-positive cells (summary statements); assay type: cell-based, human; mouse
MTAP(−) A549 cells = assay: Clonogenic assay of A549 cells; assay type: cell-based, human; details: for potentiation of killing of A549 cells by DAP: Example 9
Description: (§1) Cell viability of adherent cell types was measured by clonogenic assay as follows: after releasing cells with trypsin and removing a portion of the cell suspension for Coulter counting, the remainder of the cell suspension was plated in serial dilutions in growth medium, without drugs. After a period sufficient for clones to reach a size visible by eye (usually 2 to 3 weeks), clones were stained with crystal violet in a saline/methanol solution. Dishes that had fewer than 100 clones were deemed suitable for counting. From these counts and from the dilution factors, the approximate number of viable cells, in the parent treatment dishes, was calculated. […] In clonogenic assays, clone size was often variable, especially after treatment with toxic drugs. Moreover, many of the very small clones may have arisen from cells detached during the weeks of incubation. […] Cloning efficiency for healthy, growing A549 cells was about 50%; for HF cells, efficiency was quite variable, ranging from 25 to 75% (perhaps because the HF cell stock varied, from experiment to experiment, in passage number).
A549 cells were incubated for 4 days with additions shown below, and viable cells measured by clonogenic assay. (Results shown are approximate; see Methods) Cell count in dish at start: 40,000
• MTAP(−) A549 lung tumor cell cultures were treated with F-Ade, with or without MTA, 5′-dAdo, or adenine (Ade), for three days. Coulter counts of cells, and viable cells as determined by clonogenic assay, are shown below: • Initial cell number: 10,340*
• A549 cell cultures were treated with DAP, with or without 5′-dAdo or adenine, for three days. After trypsinization, one-fourth of the cell suspension was counted, and raw data is shown below, with duplicate counts for each sample. The cell suspension was also serially diluted for clonogenic assay. • Counts at start of experiment: Dish one: 36,480; 39,160; Dish two: 52,680; 51,360. • Initial viable cells by clonogenic assay: 180,000.
• Cell cultures were treated with MTX or alanosine for one day. DAP was then added and 3 days later, cells were trypsinized and serially diluted for clonogenic assay. Results are shown below: • Initial viable cells: 146,000
• A549 cells were plated, and after they had adhered to the substrate, medium was changed to methionine-free medium with 10% dialyzed serum. L-ethionine (Eth) and MTA were added, and after 4 days, cell cultures were trypsinized and serially diluted for clonogenic assay. • Initial number of viable cells: 160,000*
• A549 cultures were treated with 6-thioguanine (TG) or 2,6,diaminopurine (DAP), or both, for 3 days. • Initial viable cells: 275,000 • After 3 days: […]

MTAP(+) HF cells [2] = assay: Coulter counts of HF cell cultures; assay type: cell-based, human; details: for Coulter counts: x56 = cells/dish
Description: For adherent cell types (e.g., HF, A549, MCF7) cells were plated in 60 mm -diameter plastic tissue culture dishes and incubated at 37° C. in a humidified 5% CO2 atmosphere, in Dulbecco's Modified Eagle's Medium (DME) with 10% fetal bovine serum (FBS). At the start of an experiment, medium was replaced with DME and 10% dialyzed FBS.
(§2) For adherent cell types, cell numbers were determined periodically by releasing cells with trypsin (dead cells that were no longer adherent were removed by two prior rinses of the culture dish) and placing a portion of the resulting cell suspension in a Coulter counter. For cell types that grow in suspension, portions of the culture were counted directly, without trypsin treatment. Coulter counts of cells from each dish were done twice, and almost all experiments were done in duplicate. In the presentation of results, raw data for Coulter counts is given in some cases, while in others, counts have been rounded off to two to three significant figures. (Background Coulter counts—i.e., counts of diluent alone—were insignificant.)
Cell cultures were treated with MeP, with or without 5′-dAdo or MTA, for 4 days. The cell cultures were then changed to fresh medium, with the addition of 30 μM Ade to inhibit further action of the analog. Two days later cultures were trypsinized and a portion of the suspension was counted.
• A. F-Ade was added to cultures of HF cells, with varying amounts of 5′-dAdo. After 3 days, cell numbers were counted. • Initial cell count: 1,100 • After three days:
• Cultures of human fibroblasts were treated with DAP, 5′-dAdo, MTA, adenine, or MTX. Thymidine (15 μM) was added to all cultures. • Initial count was: 1807 • Counts, as raw data, after 3 days of incubation, are shown below: […]
• Human fibroblasts in culture were treated with 6-thioguanine (TG), 2,6-diaminopurine (DAP), or 5′-dAdo for 3 days. After trypsinization, cell numbers were counted. • Initial cell number: 296,000

MTAP-negative cell lines = assay: Applicants' tissue culture experiments on MTAP-negative cell lines (summary statements); assay type: cell-based, human; mouse; details: co-administered inhibitor of de novo purine synthesis
MTAP(+) HF cells [3] = assay: Clonogenic assay of HF cells; assay type: cell-based, human
Description: as §1
• B. F-Ade was added to cultures of MTAP(+) HF cells, with or without 5′-dAdo, for 3 days. Cultures were then trypsinized and serially diluted for clonogenic assay. • Initial number of viable cells per dish: 45,000 • Viable cells after 3 days shown below:
• HF cells were plated, and after they had adhered to the substrate, medium was changed to methionine-free medium, with 10% dialyzed serum. • Initial Coulter count: 73,000*; viable cells: 88,000 • After 3 days in methionine-free medium, with or without L-ethionine (Eth) or MTA: […]

[4] = tested on: MTAP(+) HT29 colon carcinoma cells; assay: Coulter counts of HT29 cultures; assay type: cell-based, human; details: 4 days, 5′-dAdo 60 μM added one day before, where present, initial count 46,000, x4 = cells/dish
Description: as §2
• 5′-dAdo was added to cultures of MTAP(+) HT29 colon carcinoma cells for one day. 5-fluorouracil (FU) was then added and 4 days later cultures were trypsinized, thoroughly dispersed into mostly single cells by vigorous pipetting, and counted. • Initial Coulter count at time of addition of FU: 46,000

MTAP(−) HL-60 cells = assay: Coulter counts of HL-60 suspension cultures; assay type: cell-based; details: six days, 5′-dAdo or Ade 60 μM added 3 hours before, where present, initial cell number/ml 8,160
Description: (§3) For cell types that grow in suspension (e.g., ML-1, HL-60, K-562) medium was RPMI-1640 with 10% FBS (undialyzed).
as §2
(§4) For cells that grow in suspension, the effect of treatments was assessed solely by changes in Coulter count.
• HL-60 cells were grown in RPMI 1640 with 10% FBS. 5′-dAdo, adenine, or neither were added, and after 3 hours, 5-fluorouracil (FU) was added to selected dishes. Six days later, cell numbers were assessed in a Coulter counter. • Initial cell number/ml: 8,160

MTAP(+) ML-1 cells = assay: Coulter counts of ML-1 suspension cultures; assay type: cell-based; details: for Increase in cell number/ml, No 5′-dAdo: 2 days, FU 3 μM, TG 20 μM, DAP 50 μM where present, initial Coulter count/ml 308,000; for inhibition of growth of MTAP(+) ML-1 cells: Example 14
Description: as §3, §2, §4
• ML-1 cells were incubated in RPMI 1640 with 10% FBS with 5′-dAdo (60 μM) for 6 hours. 5-fluorouracil (FU), 6-thioguanine (TG), or 2,6-diaminopurine (DAP) were then added, and after 2 additional days, 0.5 ml was taken for Coulter counts. Initial Coulter count/ml: 308,000

[5] = tested on: MTAP(+) hematopoietic cell progenitors; assay: Assay of colony-forming cells from mouse bone marrow; assay type: cell-based
Description: Method: The procedure for assay of colony-forming cells from mouse bone marrow was similar to methods described in the literature (see e.g., B. A. Teicher et al, Cancer Research, 47:513-518, 1987). In brief, cells were flushed from the femurs of Swiss mice, counted, and seeded into six-well tissue culture plates with supplemented McCoy's 5A medium, 15% FBS, 10 to 20% L929-cell conditioned medium as a source of colony-stimulating activity (L929 is MTAP-negative), 0.3% agar, and penicillin/streptomycin (op. cit. B. A. Teicher et al). Cells were seeded at two different densities: 50,000 and 250,000 cells per well. Control wells contained either no drugs, or adenine at 15 or 30 μM, or 5′-deoxyadenosine (5′-dAdo) at 15, 30, or 45 μM. Treatment wells contained 6-methylpurine (MeP) at 5 or 15 μM, 5′-deoxyadenosine (5′-dAdo) at 15 or 30 μM, and adenine at 15 or 30 μM, in various combinations. After eight days of incubation at 37° C. in a humidified 5% CO2 atmosphere, wells were fixed by the addition of 1 ml of 5% glutaraldehyde. Photographs were taken of a randomly selected portion of each well, as viewed (at fixed magnification) through a Nikon inverted microscope equipped with a camera.

[6] = tested on: human and mouse tumor cells; assay: Killing of tumor cells by adenine analogs (Applicants' findings, no method given); assay type: cell-based
[7] = MTX 1 μM or alanosine 3 μM for one day, then DAP 40 μM, 3 days (where present), initial viable cells 146,000

For Nc1nc2nn[nH]c2c(=O)[nH]1 [8-azaguanine], the “protection of MTAP-positive cells, but not MTAP-negative cells, from the toxicity of the nucleobase analog” value [1] was “selectively protected”.
With Nc1ncnc2nc[nH]c12 [Ade, adenine] the “blocking of MeP toxicity in A549 cells” value (MTAP(−) A549 cells; 10 μM MeP) was “blocked”, the “blocking of DAP toxicity in A549 cells” value (MTAP(−) A549 cells; 100 μM DAP, Example 7) was “did” and the “blocking of F-Ade toxicity in A549 cells” value (MTAP(−) A549 cells; 1 to 2 μM F-Ade) was “blocked”. The “blocking of DAP toxicity in HF cells” value (MTAP(+) HF cells [2]; Example 8) was “blocked”.
For N[C@@H](CN(O)N=O)C(=O)O [Alanosine, alanosine], the “potentiation of killing of A549 cells by DAP” value (MTAP(−) A549 cells) was “strongly potentiated”, the “Viable Cells” value (MTAP(−) A549 cells; [7]) was 118,000 and the “potentiation of selective killing of MTAP-negative cells by adenine and methionine antagonists” value (MTAP-negative cell lines) was “potentiated”.
With CCSCC[C@H](N)C(=O)O [Eth, ethionine] the “Viable Cells” value (MTAP(−) A549 cells; 4 days, methionine-free medium, Eth 40 μM, MTA 30 μM where present, initial viable cells 160,000) was 24,000, the “Viable Cells” value (MTAP(−) A549 cells; 4 days, methionine-free medium, Eth 80 μM, MTA 30 μM where present, initial viable cells 160,000) was 5,000 and the “toxicity to HF cells” value (MTAP(+) HF cells [3]; 40 μM L-ethionine, methionine-free medium) was “very toxic”. For the same compound, the “Viable Cells” value (MTAP(+) HF cells [3]; 3 days in methionine-free medium, Eth 40 μM, MTA 15 μM where present, initial viable cells 88,000) was 1,600.
For O=c1[nH]cc(F)c(=O)[nH]1 [FU, 5-fluorouracil], the “protection of MTAP-positive cells, but not MTAP-negative cells, from the toxicity of the nucleobase analog” value [1] was “selectively protected”, the Coulter counts ([4]; FU 3 μM) was 65,300 and the Coulter counts ([4]; FU 10 μM) was 36,600. The Coulter counts ([4]; FU 30 μM) was 25,500, the Coulter counts/ml (MTAP(−) HL-60 cells; FU 10 μM) was 125,200 counts/ml and the Coulter counts/ml (MTAP(−) HL-60 cells; FU 30 μM) was 62,400 counts/ml. The “Increase in cell number/ml, No 5′-dAdo” value (MTAP(+) ML-1 cells) was 436,000 /ml and the “inhibition of growth of MTAP(+) ML-1 cells” value (MTAP(+) ML-1 cells) was “inhibited growth”.
With CN(Cc1cnc2nc(N)nc(N)c2n1)c1ccc(C(=O)N[C@@H](CCC(=O)O)C(=O)O)cc1 [MTX, methotrexate] the “potentiation of killing of A549 cells by DAP” value (MTAP(−) A549 cells) was “strongly potentiated”, the “Viable Cells” value (MTAP(−) A549 cells; [7]) was 89,000 and the “potentiation of selective killing of MTAP-negative cells by adenine and methionine antagonists” value (MTAP-negative cell lines) was “potentiated”. For the same compound, the “Coulter counts” value (MTAP(+) HF cells [2]; 3 days, MTX 10 μM, DAP 100 μM, 5′-dAdo, MTA or Ade 15 μM where present, thymidine 15 μM in all cultures, initial count 1807) was 3,455.
Cc1ncnc2nc[nH]c12 [MeP, 6-methylpurine] was tested, and the “toxicity to A549 cells, clonogenic assay” value (MTAP(−) A549 cells; 10 μM MeP) was “highly toxic”, the “Viable Cells” value (MTAP(−) A549 cells; 4 days, MeP 10 μM, MTA, 5′-dAdo or Ade 20 μM where present, cell count at start 40,000, approximate) was 0 and the “toxicity to colony-forming murine hematopoietic progenitors” value ([5]; MeP at doses of 5 and 15 μM) was “highly toxic”. The “colonies observed (each field of view)” value ([5]; wells seeded at 250,000 cells/well, eight days, MeP 5 or 15 μM, adenine or 5′-dAdo 15 or 30 μM where present, control approximately 40-50 colonies) was “no colonies”, the Coulter counts (MTAP(+) HF cells [2]; MeP 5 μM, 5′-dAdo 20 μM or MTA 10 μM where present, 4 days, then fresh medium with 30 μM Ade, 2 days, initial count 1,157) was 2,885 and the “toxicity to HF cells” value (MTAP(+) HF cells [2]; MeP 5-10 μM, Example 3) was “strongly toxic”. The “killing of human and mouse tumor cells” value [6] was “very rapid and potent killing”.
Nc1nc2nc[nH]c2c(=S)[nH]1 [TG, 6-thioguanine] was tested, and the “Viable Cells” value (MTAP(−) A549 cells; 3 days, TG 40 μM, DAP 50 μM where present, initial viable cells 275,000) was 200,000, the “protection of MTAP-positive cells, but not MTAP-negative cells, from the toxicity of the nucleobase analog” value [1] was “selectively protected” and the “Increase in cell number/ml, No 5′-dAdo” value (MTAP(+) ML-1 cells) was 114,000 /ml. The “inhibition of growth of MTAP(+) ML-1 cells” value (MTAP(+) ML-1 cells) was “inhibited growth”, the Increase in cells/dish (MTAP(+) HF cells [2]; 3 days, TG 40 μM, DAP 50 μM, 5′-dAdo 60 μM where present, initial cell number 296,000) was 72,000 cells/dish and the “inhibition of HF cell growth” value (MTAP(+) HF cells [2]; Example 15) was “inhibited”.
In the case of O=CN(O)CC(=O)O [hadacidin], the “potentiation of selective killing of MTAP-negative cells by adenine and methionine antagonists” value (MTAP-negative cell lines) is reported as “potentiated”.
